Results as given in patent publication US9403873B2, “Peptides targeting receptor activator of nuclear factor-κB (RANK) and their applications” (UNIVERSITE DE NANTES, priority 2011, dated 2016).
“Also recorded” adds a separate entry of the source. Ends that are not written are not given here.

What was measured:
[1] = system: ovariectomized C57BL/6 mice; experiment: Ovariectomy-induced bone loss in mice, micro-CT of tibiae and L4 vertebrae; type: in vivo, mouse; conditions: 35 days
Source text: Eight-week-old ovariectomized (OVX) female C57BL6 and non-ovariectomized control mice were purchased from Janvier (Le Genest Saint Ilsle, France). Mice were housed under pathogen-free conditions at the Experimental Therapy Unit (Faculty of Medicine, University of Nantes, France), and animal care and experimental protocols were approved by the French Ministry of Research and were done in accordance with the institutional guidelines of the French Ethical Committee and under the supervision of authorized investigators. After recovery from OVX surgery for 7 days and acclimation, the mice were randomly divided into treatment groups receiving daily subcutaneous injections of a peptide and a control group receiving daily injections of the vehicle (PBS) only. Non-ovariectomized or sham-operated mice were included in the studies as healthy controls. Three experimental protocols were established. Protocol 1: Ovariectomized mice received daily s.c. injections of 10 mg/kg body weight Pep8 (Pep8, n=8) or vehicle only (OVX, n=8). Non-ovariectomized (NOV, n=8) mice served as normal controls. Protocol 2: Ovariectomized mice were randomly divided into four groups (n=8), receiving daily treatments with pegylated Pep8 (Pep8-NPEG5) at 10 mg/kg or 2.5 mg/kg, or unpegylated Pep8 at a dose of 10 mg/kg/d, or the vehicle only. Sham-operated mice (n=5) served as healthy controls. Protocol 3: Ovariectomized mice receiving daily treatments with pegylated Pep8 (Pep8-NPEG8) at 10 mg/kg or 2.5 mg/kg, as described before, or unpegylated Pep8 at a lower dose of 2.5 mg/kg/d, or the vehicle only. Sham-operated mice (n=8) served as healthy controls.
During the experimental period, the body weight of the mice was monitored. […] After treatment for five weeks, mice were anesthetized with isoflurane (2%, 1 L/min) and sacrificed by cervical dislocation. Lumbar vertebrae and tibiae were collected for micro-CT analysis and stored at 4° C. in 4% paraformaldehyde until further analysis. Additionally, internal organs (heart, liver, lungs, kidneys, spleen, intestines and thymus) of some mice (n=3 per group) were harvested and stored for toxicity screening.
Analysis of architectural variables of tibiae and vertebrae of mice was performed using the high-resolution X-ray micro-CT system for small animal imaging SkyScan-1072 (SkyScan, Belgium). After scanning, the image data were transferred to a workstation and the proximal tibiae and the fourth lumbar vertebrae (L4) were rendered for 3-D display and calculation of the structural indices (Parfitt et al. 1987) using the SkyScan analysis system (CT-analyser, CT-volume, SkyScan). For trabecular bone parameters in tibiae, transverse CT slices were obtained in the region of interest in the axial direction from the trabecular bone ca. 0.1 mm below the growth plate to the mid-femur. Contours were defined and drawn close to the cortical bone. The trabecular bone was then removed and analyzed separately. Fifty slices (1 mm) at approximately […] distal to the growth plate of the proximal ends of the tibiae were used for analysis. […] The threshold level for the measurements was set at 55 for the analyses. The analysis of the specimens involved the following bone measurements: bone volume fraction (BV/TV, %), trabecular number (TbN), trabecular thickness (TbTh) and trabecular spacing (TbSp).

[2] = target: T1, hRANK (Homo sapiens, UniProt Q9Y6Q6); experiment: Saturation transfer difference (STD) NMR of Pep8 binding to RANK; conditions: Pep8:RANK-Fc 100:1 to 1000:1, phosphate buffer
T1 construct: For NMR experiments with soluble RANK receptor-Fc (R&D Systems); purchased R&D Systems
T1 sequence (Q9Y6Q6 30-212 limits assumed): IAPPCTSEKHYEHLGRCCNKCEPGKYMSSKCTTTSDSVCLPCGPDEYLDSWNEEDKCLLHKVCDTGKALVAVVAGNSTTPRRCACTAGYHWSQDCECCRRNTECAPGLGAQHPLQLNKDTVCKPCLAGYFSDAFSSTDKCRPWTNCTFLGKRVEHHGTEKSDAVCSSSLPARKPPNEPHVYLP
Experimental: NMR experiments were run at 500.13 MHz for ^1H on a Bruker AVANCE 500 spectrometer with a Linux PC workstation, using standard 5 mm or Shigemi 3 mm tubes with susceptibility matched to solvent ^2H2O/Water sample tubes. The spectra of the polypeptide Pep8 at 0.1, 0.2, 0.4 or 1 mM sample concentrations were recorded in 50 mM sodium phosphate buffer at pH 7.4, prepared in 95% H2O and 5% ^2H2O. Two-dimensional NMR spectra were recorded in the phase-sensitive mode using the States—TPPI method (States et al. 1982). […] The two-dimensional COSY, TOCSY and NOESY spectra were recorded at 280 K. TOCSY spectra were recorded using a MLEV-17 spin-lock sequence (Bax et al. 1985) with a mixing time (τm) of 35 and 70 ms, respectively. 2D NOESY experiments were recorded at a mixing time (τm) of 100, 200 or 500 ms. The heteronuclear spectra ^1H-^13C HSQC were recorded at 280 K in the same conditions. […] Transferred nuclear Overhauser effect (TRNOESY) spectra of Pep8 with RANK receptor-Fc protein were recorded using a mixing time (Tm) of 100, 200 or 500 ms.
^1D ^1H STD NMR spectra of the polypeptide—protein mixtures were recorded at 500 MHz with 4K scans and selective saturation of protein resonances as described previously (Pons et al. 2011). […]

[3] = 10 mg/kg/day s.c., vs vehicle-treated OVX mice

STD relative transfer ratio of residues C6S7 [2]: 60%
STD saturation received by residues L3K4L5 [2]: 100%
Sequence: NVLKLCSGE [Pep8, NVLKLCSGE]
protection against OVX-induced trabecular bone loss (μCT, tibiae) ([1]; 2.5 mg/kg/d s.c.): less efficient
trabecular BV/TV and TbN, tibiae ([1]; 2.5 mg/kg/d, vs vehicle): only slightly, but not significantly increasing
protection against OVX-induced trabecular bone loss (μCT) ([1]; 10 mg/kg/d s.c.): prevented the loss of trabecular bone; also recorded: overall increase in trabecular bone density
increase of TbN, proximal tibia [1, 3]: 71%
increase of TbTh, proximal tibia [1, 3]: 14%
increase of trabecular BV/TV, proximal tibia [1, 3]: 93%
TbS, proximal tibia ([1]; 10 mg/kg/day s.c., vs vehicle-treated mice): decline
TbN, lumbar vertebrae ([1]; 10 mg/kg/day): increased
TbS, lumbar vertebrae ([1]; 10 mg/kg/day): reduced
TbTh, lumbar vertebrae ([1]; 10 mg/kg/day, vs OVX control mice): slightly, but not statistically significantly increased
vertebral trabecular BV/TV ([1]; lumbar vertebrae, 10 mg/kg/day): lower in OVX than Pep8-treated mice
